Patent US20050137220A1 (Pharmacia Corporation, priority 2003, published 2005)
Where a name gives a salt, the structure may show the parent alone. Read-outs that look alike come from different tables or passages of the source.

Legend:
p38 [1] = settings: mouse collagen-induced arthritis; cited from earlier work
p38 [2] = settings: rat adjuvant arthritis; cited from earlier work
p38 [3] = settings: murine model of endotoxin-induced shock; cited from earlier work
U937 cells = test: U937 Cell TNFα Release Assay; assay type: cell-based, human; settings: Homo sapiens, mixture of stereoisomers implied unless otherwise noted
MK-2 = MK-2 (Homo sapiens, UniProt P49137); test: Determination of MK-2 IC50 (phosphorylation of HSP-peptide, anion exchange resin capture assay); assay type: biochemical; settings: additional values are replicate IC50 experiments; mixture of stereoisomers implied unless otherwise noted; read-out: MK-2 Avg. IC50
[4] = U-937, 4 h, LPS-stimulated differentiated U937 cells, TNFα by ELISA, read-out: TNF Release Assay Avg. IC50
[5] = U-937, LPS-stimulated differentiated U937 cells, TNFα by ELISA, read-out: TNF Release Assay Avg. IC50
[6] = U-937, 4 h, read-out: TNF Release Assay Avg. IC50, LPS-stimulated differentiated U937 cells, TNFα by ELISA

Chain of MK-2 (P49137 whole entry, species assumed): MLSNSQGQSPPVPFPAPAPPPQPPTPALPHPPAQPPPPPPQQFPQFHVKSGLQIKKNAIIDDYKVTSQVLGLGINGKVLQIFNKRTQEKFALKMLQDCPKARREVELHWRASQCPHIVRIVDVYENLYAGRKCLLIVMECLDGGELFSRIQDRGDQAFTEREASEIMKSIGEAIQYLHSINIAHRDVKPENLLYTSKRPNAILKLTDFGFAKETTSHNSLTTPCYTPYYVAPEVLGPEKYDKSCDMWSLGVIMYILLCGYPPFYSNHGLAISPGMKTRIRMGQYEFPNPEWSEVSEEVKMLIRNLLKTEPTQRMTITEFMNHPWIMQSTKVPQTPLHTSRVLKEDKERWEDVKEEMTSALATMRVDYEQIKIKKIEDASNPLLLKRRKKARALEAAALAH

Row | IC50 (U937 cells; [4]) [µM] | IC50 (MK-2) [µM] | SMILES | other results
1 | > 100 | 16.7 | O=C(O)C1NCCc2c1[nH]c1ccc(OCCCCl)cc21 (stereo not drawn) [Example 76, 6-(3-chloropropoxy)-2,3,4,9-tetrahydro-1H-beta-carboline-1-carboxylic acid hydrochloride] | –
2 | 100 | > 200 | CCn1c2c(c3cc(OC)ccc31)CCNC2C(=O)OC (stereo not drawn) [Example 208, methyl 9-ethyl-6-methoxy-2,3,4,9-tetrahydro-1H-beta-carboline-1-carboxylate trifluoroacetate] | –
3 | – | 2.1 | COc1ccc2[nH]c3c(c2c1)CCC/C3=N\O [Example 19, (1E)-6-methoxy-2,3,4,9-tetrahydro-1H-carbazol-1-one oxime] | IC50 (U937 cells; [5]): 1.89 µM
4 | 2.66 | 3.6 | COc1ccc2[nH]c3c(c2c1)CCCNC3=O [Example 30, 7-methoxy-3,4,5,10-tetrahydroazepino[3,4-b]indol-1(2H)-one hydrochloride] | –
5 | – | 17 | COc1ccc2[nH]c3c(c2c1)CCC(C)/C3=N/O (stereo not shown) [Example 78, 6-methoxy-2-methyl-2,3,4,9-tetrahydro-1H-carbazol-1-one oxime] | IC50 (U937 cells; [5]): 1.59 µM
6 | 88.9 | > 200 | COC(=O)C1NCCc2c1n(C)c1ccc(OC)cc21 (stereo not drawn) [Example 209, methyl 6-methoxy-9-methyl-2,3,4,9-tetrahydro-1H-beta-carboline-1-carboxylate trifluoroacetate] | –
7 | > 100 | 27.7 | CN(C)C(=O)COc1ccc2[nH]c3c(c2c1)CCNC3C(=O)O (stereo not drawn) [Example 86, 6-[2-(dimethylamino)-2-oxoethoxy]-2,3,4,9-tetrahydro-1H-beta-carboline-1-carboxylic acid hydrochloride] | –
8 | > 100 | 8.39 | COc1ccc2[nH]c3c(c2c1)CC(C)(C)NC3C(=O)O (stereo not drawn) [Example 54, 6-methoxy-3,3-dimethyl-2,3,4,9-tetrahydro-1H-beta-carboline-1-carboxylic acid] | –
9 | > 100 | 15.3 | COC(=O)COc1ccc2[nH]c3c(c2c1)CCNC3C(=O)O (stereo not drawn) [Example 70, 6-(2-methoxy-2-oxoethoxy)-2,3,4,9-tetrahydro-1H-beta-carboline-1-carboxylic acid trifluoroacetate hydrate] | –

Continued, molecule first:

Row | SMILES | IC50 (U937 cells; [4]) [µM] | IC50 (MK-2) [µM] | other results
10 | C[S+]([O-])c1ccc(-c2nc(-c3ccncc3)c(-c3ccc(F)cc3)[nH]2)cc1 (stereo not shown) [SB203580] | – | – | development of arthritis (p38 [1]): inhibit the development; development of arthritis (p38 [2]): inhibit the development; mortality (p38 [3]): reduce mortality
11 | COc1ccc2[nH]c3c(c2c1)CC(CCCNCCc1ccccc1)NC3=O (stereo not shown) [Example 18, trifluoroacetate] | – | 2.03 | IC50 (U937 cells; U-937, read-out: TNF Release Assay Avg. IC50, LPS-stimulated differentiated U937 cells, TNFα by ELISA): 23.7 µM
12 | COC(=O)C(Oc1ccc2[nH]c3c(c2c1)CCNC3C(=O)O)c1ccccc1 (stereo not drawn) [Example 57, 6-(2-methoxy-2-oxo-1-phenylethoxy)-2,3,4,9-tetrahydro-1H-beta-carboline-1-carboxylic acid] | 97.3 | 9.45 | –
13 | O=C(O)C1NCCc2c1[nH]c1ccc(OCc3ccncc3)cc21 (stereo not drawn) [Example 85, 6-(pyridin-4-ylmethoxy)-2,3,4,9-tetrahydro-1H-beta-carboline-1-carboxylic acid hydrochloride] | 48.4 | 25.8 | –
14 | COc1ccc2[nH]c3c(c2c1)CC(CCCN)NC3=O (stereo not drawn) [Example 38, 3-(3-aminopropyl)-6-methoxy-2,3,4,9-tetrahydro-1H-beta-carbolin-1-one trifluoroacetate] | – | 5.5 | IC50 (U937 cells; [5]): 36.7 µM
15 | O=C(O)C1NCCc2c1[nH]c1ccc(Br)cc21 (stereo not drawn) [Example 89, 6-bromo-2,3,4,9-tetrahydro-1H-beta-carboline-1-carboxylic acid compound with ethanol(1:1) hydrochloride] | – | 28.2 | IC50 (U937 cells; [6]): > 100 µM
16 | COc1ccc2[nH]c3c(c2c1)C(C(F)(F)F)CNC3C(=O)O (stereo not drawn) [Example 66, 6-methoxy-4-(trifluoromethyl)-2,3,4,9-tetrahydro-1H-beta-carboline-1-carboxylic acid] | 41.3 | 13.8 | –
17 | COc1ccc2[nH]c3c(c2c1)CC(CCCNCCCc1ccccc1)NC3=O (stereo not drawn) [Example 27, 6-methoxy-3-{3-[(3-phenylpropyl)amino]propyl}-2,3,4,9-tetrahydro-1H-beta-carbolin-1-one trifluoroacetate] | – | 3.24 | IC50 (U937 cells; [5]): 8.54 µM
18 | COc1ccc2[nH]c3c(c2c1)CCN(C)C3C(N)=O (stereo not drawn) [Example 170, 6-methoxy-2-methyl-2,3,4,9-tetrahydro-1H-beta-carboline-1-carboxamide] | – | > 200 | IC50 (U937 cells; [6]): > 100 µM
